How the values were obtained:
corn = assay: Test B pre/postemergence corn; assay type: in vivo, Zea mays
Method in brief: (§1)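 Herbicidal effect was estimated by eye on a ten-point control scale after plants spent twelve to sixteen days in a greenhouse following soil or foliar treatment. Foliar sprays targeted plants at one to four leaves; all doses were formulated in a non-phytotoxic solvent with surfactant.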

purple nutsedge = assay: Test B pre/postemergence purple nutsedge; assay type: in vivo, Cyperus rotundus
Method in brief: as §1

crabgrass = assay: Test B pre/postemergence crabgrass; assay type: in vivo, Digitaria sanguinalis
Method in brief: as §1

blackgrass = assay: Test B pre/postemergence blackgrass; assay type: in vivo, Alopecurus myosuroides
Method in brief: as §1

wild oat = assay: Test B pre/postemergence wild oat; assay type: in vivo, Avena fatua
Method in brief: as §1

smallflower flatsedge = assay: Test B flood test smallflower flatsedge; assay type: in vivo, Cyperus difformis
Method in brief: (§2)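 Read-out is a visual response score from 0 (no effect) to 10 (complete control), assigned by comparison with untreated controls. Treatment was applied at the 2-leaf stage, and plants stayed in the greenhouse for twelve to sixteen days before scoring.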

surinam grass = assay: Test B pre/postemergence surinam grass; assay type: in vivo, Brachiaria decumbens
Method in brief: as §1

duck salad = assay: Test B flood test duck salad; assay type: in vivo, Heteranthera limosa
Method in brief: as §2

velvetleaf = assay: Test B pre/postemergence velvetleaf; assay type: in vivo, Abutilon theophrasti
Method in brief: as §1

bedstraw = assay: Test B pre/postemergence bedstraw; assay type: in vivo, Galium aparine; conditions: Postemergence
Method in brief: as §1

soybean = assay: Test B pre/postemergence soybean; assay type: in vivo, Glycine max
Method in brief: as §1

wheat = assay: Test B pre/postemergence wheat; assay type: in vivo, Triticum aestivum
Method in brief: as §1

rice = assay: Test B flood test rice; assay type: in vivo, Oryza sativa
Method in brief: as §2

sugar beet = assay: Test B pre/postemergence sugar beet; assay type: in vivo, Beta vulgaris
Method in brief: as §1

rape = assay: Test B pre/postemergence rape; assay type: in vivo, Brassica napus
Method in brief: as §1

cocklebur = assay: Test B pre/postemergence cocklebur; assay type: in vivo, Xanthium strumarium
Method in brief: as §1

bamyardgrass = assay: Test B flood test barnyardgrass; assay type: in vivo, Echinochloa crus-galli
Method in brief: as §2

[1] = Postemergence, Rate 62 g/ha, scale 0 to 10, 0 is no effect, 10 is complete control
[2] = Postemergence, Rate 125 g/ha, scale of 0 to 10 where 0 is no effect and 10 is complete control
[3] = Postemergence, Rate 250 g/ha, scale of 0 to 10, 0 is no effect, 10 is complete control
[4] = Postemergence, Rate 500 g/ha, scale of 0 to 10 where 0 is no effect and 10 is complete control
[5] = Preemergence, Rate 62 g/ha, scale 0 to 10 (0 no effect, 10 complete control)
[6] = Preemergence, Rate 125 g/ha, scale of 0 to 10 where 0 is no effect and 10 is complete control
[7] = Preemergence, Rate 250 g/ha, scale 0 to 10 (0 no effect, 10 complete control)
[8] = Preemergence, Rate 500 g/ha, scale of 0 to 10 where 0 is no effect and 10 is complete control
[9] = Rate 62 g/ha, flood test species, Pre-emergence, visual evaluation after twelve to sixteen days
[10] = Rate 125 g/ha, under heading Pre-emergence, flood test species, visual evaluation after twelve to sixteen days
[11] = Rate 250 g/ha, Pre-emergence (flood test species), scale 0 to 10, 0 is no effect, 10 is complete control
[12] = Rate 500 g/ha, Pre-emergence section of Table B, 0 to 10 scale (0 no effect, 10 complete control)

With CCOC(Cn1c(=O)on(C(=O)N(c2ccccc2)C(C)C)c1=O)OCC [Compound 632] the “Plant response rating, Corn” value (corn; [1]) was 0, the “Plant response rating, Corn” value (corn; [2]) was 3 and the “Corn plant response rating” value (corn; [3]) was 3. For the same molecule, the “Plant response rating, Corn” value (corn; [4]) was 5, the “Corn plant response rating” value (corn; [5]) was 0 and the “Corn plant response rating” value (corn; [6]) was 4. For the same molecule, the “Plant response rating, Corn” value (corn; [7]) was 4, the “Plant response rating, Corn” value (corn; [8]) was 5 and the “Plant response rating, Nutsedge” value (purple nutsedge; [1]) was 0. The “Plant response rating, Nutsedge” value (purple nutsedge; [2]) was 0, the “Nutsedge plant response rating” value (purple nutsedge; [3]) was 0 and the “Nutsedge plant response rating” value (purple nutsedge; [5]) was 0. The “Nutsedge plant response rating” value (purple nutsedge; [6]) was 0, the “Plant response rating, Nutsedge” value (purple nutsedge; [7]) was 0 and the “Plant response rating, Nutsedge” value (purple nutsedge; [8]) was 0. For the same molecule, the “Plant response rating, Crabgrass” value (crabgrass; [1]) was 0, the “Plant response rating, Crabgrass” value (crabgrass; [2]) was 6 and the “Crabgrass plant response rating” value (crabgrass; [3]) was 8. The “Crabgrass plant response rating” value (crabgrass; [5]) was 2, the “Crabgrass plant response rating” value (crabgrass; [6]) was 7 and the “Plant response rating, Crabgrass” value (crabgrass; [7]) was 8. For the same molecule, the “Plant response rating, Crabgrass” value (crabgrass; [8]) was 9, the “Plant response rating, Blackgrass” value (blackgrass; [1]) was 0 and the “Plant response rating, Blackgrass” value (blackgrass; [2]) was 4. For the same molecule, the “Blackgrass plant response rating” value (blackgrass; [3]) was 6, the “Plant response rating, Blackgrass” value (blackgrass; [4]) was 8 and the “Blackgrass plant response rating” value (blackgrass; [5]) was 2. The “Blackgrass plant response rating” value (blackgrass; [6]) was 4, the “Plant response rating, Blackgrass” value (blackgrass; [7]) was 7 and the “Plant response rating, Blackgrass” value (blackgrass; [8]) was 10. For the same molecule, the “Plant response rating, Wild oats” value (wild oat; [1]) was 0, the “Plant response rating, Wild oats” value (wild oat; [2]) was 0 and the “Wild oats plant response rating” value (wild oat; [3]) was 0. For the same molecule, the “Wild oats plant response rating” value (wild oat; [5]) was 0, the “Wild oats plant response rating” value (wild oat; [6]) was 2 and the “Plant response rating, Wild oats” value (wild oat; [7]) was 3. The “Plant response rating, Wild oats” value (wild oat; [8]) was 3, the “Plant response rating, S. Flatsedge (0 to 10 scale, 0 is no effect, 10 is complete control)” value (smallflower flatsedge; [9]) was 0 and the “S. Flatsedge plant response rating (0 to 10 scale, 0 is no effect, 10 is complete control)” value (smallflower flatsedge; [10]) was 0. For the same molecule, the “S. Flatsedge plant response rating” value (smallflower flatsedge; [11]) was 0, the “S. Flatsedge plant response rating” value (smallflower flatsedge; [12]) was 0 and the “Plant response rating, B. signalgrass” value (surinam grass; [1]) was 0. For the same molecule, the “Plant response rating, B. signalgrass” value (surinam grass; [2]) was 0, the “B. signalgrass plant response rating” value (surinam grass; [3]) was 2 and the “Plant response rating, B. signalgrass” value (surinam grass; [4]) was 6. For the same molecule, the “B. signalgrass plant response rating” value (surinam grass; [5]) was 0, the “B. signalgrass plant response rating” value (surinam grass; [6]) was 3 and the “Plant response rating, B. signalgrass” value (surinam grass; [7]) was 6. For the same molecule, the “Plant response rating, B. signalgrass” value (surinam grass; [8]) was 10, the “Plant response rating, Ducksalad (0 to 10 scale, 0 is no effect, 10 is complete control)” value (duck salad; [9]) was 0 and the “Ducksalad plant response rating (0 to 10 scale, 0 is no effect, 10 is complete control)” value (duck salad; [10]) was 0. For the same molecule, the “Ducksalad plant response rating” value (duck salad; [11]) was 0, the “Ducksalad plant response rating” value (duck salad; [12]) was 0 and the “Plant response rating, Velvetleaf” value (velvetleaf; [1]) was 0. For the same molecule, the “Plant response rating, Velvetleaf” value (velvetleaf; [2]) was 0, the “Velvetleaf plant response rating” value (velvetleaf; [3]) was 0 and the “Velvetleaf plant response rating” value (velvetleaf; [5]) was 0. The “Velvetleaf plant response rating” value (velvetleaf; [6]) was 1, the “Plant response rating, Velvetleaf” value (velvetleaf; [7]) was 6 and the “Plant response rating, Velvetleaf” value (velvetleaf; [8]) was 7. For the same molecule, the “Plant response rating, Bedstraw” value (bedstraw; Rate 62 g/ha, scale 0 to 10, 0 is no effect, 10 is complete control) was 0, the “Plant response rating, Bedstraw” value (bedstraw; Rate 125 g/ha, scale of 0 to 10 where 0 is no effect and 10 is complete control) was 0 and the “Bedstraw plant response rating” value (bedstraw; Rate 250 g/ha, scale of 0 to 10, 0 is no effect, 10 is complete control) was 0. The “Plant response rating, Soybean” value (soybean; [1]) was 1, the “Plant response rating, Soybean” value (soybean; [2]) was 2 and the “Soybean plant response rating” value (soybean; [3]) was 4. The “Soybean plant response rating” value (soybean; [5]) was 0, the “Soybean plant response rating” value (soybean; [6]) was 0 and the “Plant response rating, Soybean” value (soybean; [7]) was 0. For the same molecule, the “Plant response rating, Soybean” value (soybean; [8]) was 0, the “Plant response rating, Wheat” value (wheat; [1]) was 0 and the “Plant response rating, Wheat” value (wheat; [2]) was 0. The “Wheat plant response rating” value (wheat; [3]) was 0, the “Wheat plant response rating” value (wheat; [5]) was 0 and the “Wheat plant response rating” value (wheat; [6]) was 0. For the same molecule, the “Plant response rating, Wheat” value (wheat; [7]) was 0, the “Plant response rating, Wheat” value (wheat; [8]) was 0 and the “Plant response rating, Rice (0 to 10 scale, 0 is no effect, 10 is complete control)” value (rice; [9]) was 0. For the same molecule, the “Rice plant response rating (0 to 10 scale, 0 is no effect, 10 is complete control)” value (rice; [10]) was 0, the “Rice plant response rating” value (rice; [11]) was 0 and the “Rice plant response rating” value (rice; [12]) was 0. The “Plant response rating, Sugarbeets” value (sugar beet; [1]) was 0, the “Plant response rating, Sugarbeets” value (sugar beet; [2]) was 0 and the “Sugarbeets plant response rating” value (sugar beet; [3]) was 0. For the same molecule, the “Sugarbeets plant response rating” value (sugar beet; [5]) was 0, the “Sugarbeets plant response rating” value (sugar beet; [6]) was 0 and the “Plant response rating, Sugarbeets” value (sugar beet; [7]) was 0. For the same molecule, the “Plant response rating, Sugarbeets” value (sugar beet; [8]) was 0, the “Plant response rating, Rape” value (rape; [1]) was 0 and the “Plant response rating, Rape” value (rape; [2]) was 0. The “Rape plant response rating” value (rape; [3]) was 0, the “Plant response rating, Rape” value (rape; [4]) was 0 and the “Rape plant response rating” value (rape; [5]) was 0. For the same molecule, the “Rape plant response rating” value (rape; [6]) was 0, the “Plant response rating, Rape” value (rape; [7]) was 0 and the “Plant response rating, Rape” value (rape; [8]) was 4. For the same molecule, the “Plant response rating, Cocklebur” value (cocklebur; [1]) was 0, the “Plant response rating, Cocklebur” value (cocklebur; [2]) was 0 and the “Cocklebur plant response rating” value (cocklebur; [3]) was 0. For the same molecule, the “Plant response rating, Cocklebur” value (cocklebur; [4]) was 0, the “Cocklebur plant response rating” value (cocklebur; [5]) was 0 and the “Cocklebur plant response rating” value (cocklebur; [6]) was 0. The “Plant response rating, Cocklebur” value (cocklebur; [7]) was 0, the “Plant response rating, Cocklebur” value (cocklebur; [8]) was 0 and the “Plant response rating, Barnyardgrass (0 to 10 scale, 0 is no effect, 10 is complete control)” value (bamyardgrass; [9]) was 0. The “Barnyardgrass plant response rating (0 to 10 scale, 0 is no effect, 10 is complete control)” value (bamyardgrass; [10]) was 0, the “Barnyardgrass plant response rating” value (bamyardgrass; [11]) was 0 and the “Barnyardgrass plant response rating” value (bamyardgrass; [12]) was 0.

From patent US6737383B1, “Herbicidal oxadiazolidines” (priority 1999, dated 2004)
